Measured values reported in US20090203605A1, “Methods For Treating A Condition Characterized By Dysfunction In Protein Homeostasis” (THE SCRIPPS RESEARCH INSTITUTE, priority 2008, published 2009).
Residues, ends and D or L forms follow the SMILES beside them. *: point of attachment. Cbz = O=C(OCc1ccccc1)*

Legend:
G269S/1278insTATC HexA = molecular target: T1, G269S/1278insTATC HexA (Homo sapiens, UniProt P06865, G269S); assay: Hex α-site cell assay in Tay-Sachs fibroblast cell line; format: cell-based; conditions: MG-132 0.8 to 1 μM, 144 h incubation
T1 construct: host or cells: Tay-Sachs patient fibroblasts, lysed for the MUGS assay
T1 sequence (P06865 89-529 G269S): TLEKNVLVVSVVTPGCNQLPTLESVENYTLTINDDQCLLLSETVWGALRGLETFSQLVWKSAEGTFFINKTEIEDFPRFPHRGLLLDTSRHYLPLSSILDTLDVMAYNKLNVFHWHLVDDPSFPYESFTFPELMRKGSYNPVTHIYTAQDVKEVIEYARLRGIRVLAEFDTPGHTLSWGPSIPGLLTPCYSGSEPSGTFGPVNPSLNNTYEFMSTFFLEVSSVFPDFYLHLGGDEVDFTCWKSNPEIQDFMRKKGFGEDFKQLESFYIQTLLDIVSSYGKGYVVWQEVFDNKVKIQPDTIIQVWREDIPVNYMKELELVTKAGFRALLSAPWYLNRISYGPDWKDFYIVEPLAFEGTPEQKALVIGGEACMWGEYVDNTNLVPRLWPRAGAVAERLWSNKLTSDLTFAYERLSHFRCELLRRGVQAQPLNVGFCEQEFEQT
T1 sequence (P07686 122-556 partner): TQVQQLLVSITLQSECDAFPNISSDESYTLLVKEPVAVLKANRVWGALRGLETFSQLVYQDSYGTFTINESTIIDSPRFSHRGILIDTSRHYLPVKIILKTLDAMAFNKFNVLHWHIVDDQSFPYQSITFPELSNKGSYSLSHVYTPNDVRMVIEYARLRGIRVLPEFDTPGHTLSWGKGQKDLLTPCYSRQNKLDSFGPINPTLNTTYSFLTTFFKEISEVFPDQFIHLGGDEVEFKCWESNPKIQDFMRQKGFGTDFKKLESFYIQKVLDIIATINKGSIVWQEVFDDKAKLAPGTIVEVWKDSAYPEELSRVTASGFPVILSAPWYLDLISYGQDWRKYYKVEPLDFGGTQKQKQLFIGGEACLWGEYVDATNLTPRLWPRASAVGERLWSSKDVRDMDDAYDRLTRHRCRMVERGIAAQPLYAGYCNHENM
Source text: We therefore evaluated the ability of these proteostasis regulators to restore partial function to HexA, a heterodimeric enzyme composed of α- and β-subunits that degrades GM2 gangliosides in the lysosome. Mutations in the β-hexosaminidase A α-subunit can cause extensive ERAD of HexA, leading to Tay-Sachs disease (TSD). Jeyakumar et al., Neuropathol Appl Neurobiol 28: 343-357, 2002. HexA activity was studied in a compound heterozygous fibroblast cell line (GM13204), harboring one of the most prevalent β-hexosaminidase A α-subunit mutations (G269S) found in Tay-Sachs patients and a second mutated HexA allele (1278insTATC) with a stop codon. […] Tropak et al., J Biol Chem 279: 13478-13487, 2004.
The Hex α-site cell assay has been previously described. Tropak et al., J Biol Chem 279: 13478-13487, 2004. Cells were plated as described for the GC assay. After 1 to 8 days of incubation the medium was removed, cells were washed with PBS, and lysed with 60 μl of 10 mM citrate/phosphate buffer pH 4.2 (CP buffer) containing 0.5% human serum albumin and 0.5% Triton X-100. 30 μl of aliquots were transferred to a 96-well plate and Hex α-site activity was measured by adding 30 μl of 3.2 mM MUGS in CP buffer to each well and incubating the plates at 37° C. for 1 to 7 hour. The reaction was stopped by adding 200 μl of 0.1 M 2-amino-2-methyl-1-propanol pH 10.5 and the fluorescence was measured (excitation 365 nm, emission 450 nm).

[1] = tested on: spliced Xbp-1 mRNA (IRE1 arm of the UPR); assay: RT-PCR analysis of Xbp-1 splicing in L444P GC fibroblasts; format: cell-based, human; conditions: single exposure 0.8 μM; 2, 4, 6 and 24 h
Method: IRE1 responds to stress by oligomerization, resulting in trans-autophosphorylation that activates its endonuclease function, precisely splicing the mRNA that encodes the transcription factor XBP1. Ron et al., Nat Rev Mol Cell Biol 8: 519-529, 2007; Schroeder et al., Ann Rev Biochem 74: 739-789, 2005. RT-PCR was performed to detect the spliced mRNA of XBP1.
RT-PCR analysis of Xbp-1 splicing. cDNA was synthesized as in quantitative RT-PCR. Samples were heated for 5 min at 95° C., amplified in 30 cycles of 60 s at 95° C., 30 s at 58° C., and 30 s at 72° C., and 5 min at 72° C. PCR products were subjected to a 2.5% agarose gel. Unspliced Xbp-1 yielded a 289 bp amplicon, and spliced Xbp-1 yielded a 263 bp amplicon. The experiments were performed three times and similar results were obtained.

ΔF508 CFTR = assay: Trafficking of ΔF508 CFTR to the plasma membrane; format: cell-based; conditions: diltiazem treatment
[2] = tested on: GC and chaperone mRNA expression levels; conditions: diltiazem 10 μM
WT lysosomal hydrolases = assay: Activity of other WT lysosomal enzymes in fibroblasts; conditions: WT fibroblasts and L444P GC fibroblasts, diltiazem 10 μM, 5 days (FIG. 23)

SMILES	Hex α-site activity as % of cellular WT Hex α-site activity (G269S/1278insTATC HexA)	spliced Xbp-1 mRNA [1]	trafficking of ΔF508 CFTR to the plasma membrane (ΔF508 CFTR)	mRNA expression level of Hsp40 ([2]; 7 days (FIG. 26))	GC mRNA expression level vs untreated cells ([2]; 6 h to 5 d)	effect on activity of other WT lysosomal enzymes (WT lysosomal hydrolases)
CC(C)C[C@@H](C=O)NC(=O)[C@H](CC(C)C)NC(=O)[C@H](CC(C)C)NC(=O)OCc1ccccc1 [MG-132] (Cbz-Leu-Leu-Leu-aldehyde)	≈ 18%	no spliced Xbp-1 could be detected	–	–	–	–
COc1ccc([C@@H]2Sc3ccccc3N(CCN(C)C)C(=O)[C@@H]2OC(C)=O)cc1.Cl [diltiazem, Diltiazem hydrochloride]	–	–	Nor does diltiazem treatment increase the trafficking	similarly increased	Strictly analogous results	did not significantly increase the activity of other WT lysosomal enzymes
